Assay results: ChEMBL document CHEMBL1134487, “Design, synthesis, and biological evaluation of analogues of the antitumor agent, 2-(4-[(7-chloro-2-quinoxalinyl)oxy]phenoxy)propionic acid (XK469)” (2001)
Calls of active or inactive are those of the source. No cut-off for these calls is given here.

How the values were obtained:
[1] = system: Mus musculus; experiment: In vivo activity tested against C3H mice bearing panc-03 murine tumor at a dose of 330mg/kg, measured as activity rating; assay type: functional
[2] = system: Mus musculus; experiment: In vivo activity tested against C3H mice bearing panc-03 murine tumor at a dose of 330mg/kg, measured as % treated/control; assay type: functional
[3] = system: Mus musculus; experiment: In vivo activity against transplanted Mam-16/C/ Taxol tumors of mice; Not active; assay type: functional, organism-based
[4] = system: Mus musculus; experiment: In vivo activity against transplanted colon-51 tumors of mice; assay type: functional, organism-based
[5] = system: Mus musculus; experiment: In vivo activity against iv transplanted Leukemia L1210 tumors of mice; assay type: functional, organism-based
[6] = system: Mus musculus; experiment: In vivo activity against iv transplanted AML Leukemia 1498 tumors of mice; assay type: functional, organism-based
[7] = system: Mus musculus; experiment: In vivo activity against transplanted Panc-02 tumors of mice; assay type: functional, organism-based
[8] = system: Mus musculus; experiment: In vivo activity against transplanted colon-38 tumors of mice; assay type: functional, organism-based
[9] = system: Mus musculus; experiment: In vivo activity against transplanted colon-26 tumors of mice; assay type: functional, organism-based
[10] = system: Mus musculus; experiment: In vivo activity against transplanted Mam-16/C tumors of mice; assay type: functional, organism-based
[11] = system: Mus musculus; experiment: In vivo activity against transplanted Mam-17/Adr tumors of mice; assay type: functional, organism-based
[12] = system: Mus musculus; experiment: In vivo activity against transplanted Mam-17 tumors of mice; assay type: functional, organism-based
[13] = system: Mus musculus; experiment: In vivo activity against transplanted Squam lung-LC12 tumors of mice; assay type: functional, organism-based
[14] = system: Mus musculus; experiment: In vivo activity against transplanted Mel-B16 tumors of mice; assay type: functional, organism-based
[15] = system: Mus musculus; experiment: In vivo activity against transplanted Mam-16/C/Adr tumors of mice; Not active; assay type: functional, organism-based
[16] = system: Mus musculus; experiment: In vivo activity against transplanted Panc-03 tumors of mice; assay type: functional, organism-based
[17] = system: Mus musculus; experiment: In vivo activity against transplanted Mam-16/C/ Taxol tumors of mice; assay type: functional, organism-based
[18] = system: Mus musculus; experiment: In vivo activity against transplanted Mam-16/C/Adr tumors of mice; assay type: functional, organism-based
[19] = system: Mus musculus; experiment: In vivo activity against transplanted Mam-17/Adr tumors of mice; Not active; assay type: functional, organism-based
[20] = system: Mus musculus; experiment: In vivo activity against transplanted Mam-17 tumors of mice; Not active; assay type: functional, organism-based
[21] = system: Mus musculus; experiment: In vivo activity against transplanted Panc-03 tumors of mice; Not active; assay type: functional, organism-based
[22] = system: Mus musculus; experiment: In vivo activity against iv transplanted AML Leukemia 1498 tumors of mice; Not active; assay type: functional, organism-based
[23] = system: Mus musculus; experiment: In vivo activity against transplanted Panc-02 tumors of mice; Not active; assay type: functional, organism-based
[24] = system: Mus musculus; experiment: In vivo activity against transplanted Mel-B16 tumors of mice; Not active; assay type: functional, organism-based
[25] = system: Mus musculus; experiment: In vivo activity against transplanted colon-51 tumors of mice; Not active; assay type: functional, organism-based
[26] = system: Mus musculus; experiment: In vivo activity against transplanted colon-26 tumors of mice; Not active; assay type: functional, organism-based
[27] = system: Mus musculus; experiment: In vivo activity against iv transplanted Leukemia L1210 tumors of mice; Not active; assay type: functional, organism-based
[28] = system: Mus musculus; experiment: In vivo antitumor activity against tumor […]; Inactive; assay type: functional, organism-based
[29] = system: Mus musculus; experiment: In vivo activity tested against C3H mice bearing mammary adenocarcinoma -17/ADR tumor measured as body weight loss at 750 mg/kg (po); assay type: functional
[30] = system: Mus musculus; experiment: In vivo activity tested against C3H mice bearing mammary adenocarcinoma -17/ADR tumor measured as log Kill value was based on tumors that grew at 750 mg/kg (po); assay type: functional, organism-based; parameters: dose 750 mg/kg
[31] = system: Mus musculus; experiment: In vivo activity tested against C3H mice bearing mammary adenocarcinoma -17/ADR tumor measured as % treated/control calculated at 750 mg/kg (po); assay type: functional
[32] = system: Mus musculus; experiment: In vivo activity tested against C3H mice bearing mammary adenocarcinoma -17/ADR tumor measured as log Kill value was based on tumors that grew at 1250 mg/kg (po); assay type: functional, organism-based; parameters: dose 1250 mg/kg
[33] = system: Mus musculus; experiment: In vivo activity tested against C3H mice bearing mammary adenocarcinoma -17/ADR tumor measured as body weight loss at 1250 mg/kg (po); assay type: functional
[34] = system: Mus musculus; experiment: In vivo activity tested against C3H mice bearing mammary adenocarcinoma -17/ADR tumor measured as % treated/control calculated at 1250 mg/kg (po); assay type: functional
[35] = system: Mus musculus; experiment: In vivo activity tested against C3H mice bearing panc-03 murine tumor measured as body weight loss at 800 mg/kg (po); assay type: functional
[36] = system: Mus musculus; experiment: In vivo activity tested against C3H mice bearing panc-03 murine tumor measured as % treated/control calculated at 800 mg/kg (po); assay type: functional
[37] = system: Mus musculus; experiment: In vivo activity tested against C3H mice bearing panc-03 murine tumor measured as log Kill value was based on tumors that grew at 800 mg/kg (po); assay type: functional, organism-based; parameters: dose 800 mg/kg
[38] = species: Mus musculus; experiment: […] activity against C3H mice bearing panc-03 murine tumor; Inactive; assay type: functional, organism-based

Compound CC(Oc1cccc(Oc2cnc3ccc(Cl)cc3n2)c1)C(=O)O (configuration not stated) has an Activity rating [1] of under 0.7 and a T/C [2] of 100%.
In the case of Nc1ccn([C@@H]2O[C@H](CO)[C@@H](O)[C@@H]2O)c(=O)n1, the NA [3] is reported as “inactive”, the Log kill [4] is reported as under 0.7 and the Log kill [5] is reported as over 5. For the same compound, the Log kill [6] was over 2.8, the Log kill [7] was under 0.7 and the Log kill [8] was 1.9. It also gave a Log kill [9] of under 0.7, a Log kill [10] of 1.9 and a Log kill [11] of 2.8. It also gave a Log kill [12] of 1.9, a Log kill [13] of under 0.7 and a Log kill [14] of under 0.7. For the same compound, the NA [15] was “inactive” and the Log kill [16] was under 0.7.
In the case of CC[C@]1(O)C[C@@H]2CN(CCc3c([nH]c4ccccc34)[C@@](C(=O)OC)(c3cc4c(cc3OC)N(C)[C@H]3[C@@](O)(C(=O)OC)[C@H](OC(C)=O)[C@]5(CC)C=CCN6CC[C@]43[C@@H]65)C2)C1, the Log kill [17] is reported as under 0.7, the Log kill [4] is reported as under 0.7 and the Log kill [5] is reported as 1.9. For the same compound, the Log kill [6] was under 0.7, the Log kill [7] was under 0.7 and the Log kill [8] was 2.8. For the same compound, the Log kill [9] was under 0.7, the Log kill [10] was 1.9 and the Log kill [11] was under 0.7. For the same compound, the Log kill [12] was under 0.7, the Log kill [18] was under 0.7 and the Log kill [13] was under 0.7. For the same compound, the Log kill [14] was under 0.7 and the Log kill [16] was under 0.7.
For Nc1ccn([C@@H]2O[C@H](CO)[C@@H](O)C2(F)F)c(=O)n1, the NA [3] was “inactive”, the Log kill [5] was over 5 and the NA [19] was “inactive”. It also gave a Log kill [8] of 2.8, a Log kill [9] of 2.8 and a Log kill [10] of over 2.8. The Log kill [13] was under 0.7, the NA [20] was “inactive” and the NA [21] was “inactive”. The NA [22] was “inactive”, the NA [23] was “inactive” and the NA [15] was “inactive”. The NA [24] was “inactive” and the NA [25] was “inactive”.
With CC[C@@]1(O)C(=O)OCc2c1cc1n(c2=O)Cc2cc3ccccc3nc2-1 the NA [3] was “inactive”, the Log kill [4] was 1.2 and the NA [19] was “inactive”. For the same compound, the Log kill [7] was under 0.7, the Log kill [8] was 1.2 and the NA [26] was “inactive”. The Log kill [10] was 2.8, the Log kill [13] was under 0.7 and the NA [20] was “inactive”. The Log kill [14] was 1.2, the NA [22] was “inactive” and the NA [27] was “inactive”. For the same compound, the NA [15] was “inactive” and the Log kill [16] was over 2.8.
For CC(Oc1ccccc1Oc1cnc2ccc(Cl)cc2n1)C(=O)O (configuration not stated), the NA [28] was “inactive”.
Cc1ccc2ncc(Oc3ccc(OC(C)C(=O)O)cc3)nc2c1 (configuration not stated) showed a Body weight loss [29] of 4.3%, a Log kill [30] of 0.38 and a T/C [31] of 47%. For the same compound, the Log kill [32] was 0.63, the Body weight loss [33] was 7.1% and the T/C [34] was 21%.
For CC(Oc1ccc(Sc2cnc3ccc(Cl)cc3n2)cc1)C(=O)O (configuration not stated), the NA [28] was “inactive”.
With O=NN(CCCl)C(=O)NCCCl the NA [3] was “inactive”, the Log kill [4] was 1.9 and the Log kill [5] was over 5. The Log kill [7] was under 0.7, the Log kill [8] was under 0.7 and the Log kill [9] was over 2.8. It also gave a Log kill [10] of under 0.7, a Log kill [11] of under 0.7 and a Log kill [12] of under 0.7. For the same compound, the Log kill [18] was 0.7, the Log kill [13] was 1.2 and the Log kill [14] was over 2.8. The NA [22] was “inactive” and the Log kill [16] was under 0.7.
With CISPLATIN the NA [3] was “inactive”, the Log kill [4] was 1.9 and the Log kill [5] was 2.9. It also gave a Log kill [7] of under 0.7, a Log kill [8] of 0.7 and a Log kill [9] of 1.9. It also gave a Log kill [10] of 1.2, a Log kill [11] of over 2.8 and a Log kill [12] of 2.8. It also gave a Log kill [18] of 1.2, a Log kill [13] of over 2.8 and a Log kill [14] of 1.9. For the same compound, the NA [22] was “inactive” and the Log kill [16] was 1.9.
Compound CC(Oc1ccc(Oc2cnc3ccc(Cl)cc3n2)cc1)C(=O)NN (configuration not stated) has a Body weight loss [35] of -6.5%, a T/C [36] of 27% and a Log kill [37] of 0.75.
With CC(Oc1ccc(Oc2cnc3ccc(N)cc3n2)cc1)C(=O)O (configuration not stated) the NA [38] was “inactive”.
With O=P1(N(CCCl)CCCl)NCCCO1 (configuration not stated) the NA [3] was “inactive”, the Log kill [4] was 1.9 and the Log kill [5] was 4.9. The Log kill [6] was over 2.8, the Log kill [7] was under 0.7 and the Log kill [8] was 0.7. It also gave a Log kill [9] of 1.9, a Log kill [10] of 2.8 and a Log kill [11] of 2.8. It also gave a Log kill [12] of 2.8, a Log kill [18] of over 2.8 and a Log kill [13] of over 2.8. The Log kill [14] was 1.9 and the Log kill [16] was 1.9.
